This note sets out measurements from patent US7067262B2, “Cell line for the expression of an α2δ2 calcium channel subunit and methods of use” (Warner Lambert Company LLC, priority 2000, dated 2006).

Molecules are shown by their SMILES. Like-named read-outs stand apart in the source and are kept apart here.

Assay [1] has as its target T1, porcine α2δ1 (pα2δ1) calcium channel subunit (Sus scrofa, UniProt A0A287BIN3).
T1 construct: expressed in transfected cells
Description: [3H]gabapentin radioligand binding to membranes from HEK293 stable cell line GKS02. The following applies: for affinity in competition with [3H]gabapentin binding, in words: pα2δ1. As for the experimental part:
Cell culture and transfection. […] The media were supplemented with 50 units/mL penicillin, 50 μg/mL streptomycin, and 10% heat-inactivated fetal bovine serum (FBS), in a humidified incubator with 95% air and 5% CO2 at 37° C. For transient transfection into COS-7 cells, 20 μg of plasmid DNA (vector or the same vector with α2δ insert) was incubated with 30 μL of lipofectamine. The mixture was overlaid onto the cells in 1.5 mL serum-free medium and incubated for 5 hours. Then FBS was added to the dishes to bring the final concentration to 10%. The medium was changed next morning. Forty-eight hours after the transfection, the cells were harvested for membrane preparation. For stable transfection of porcine α2δ1 and human α2δ2 into HEK 293 cells, the same procedure was applied as that for a transient transfection except for that 800 μg/mL G418 (gentacin) was added to the cells 48 hours after the transfection. […] In addition, hosts for expression of α2δ2 protein binding assays can also include eukaryotic expression systems such as yeast, insect cells, and mammalian cells (CHO, COS-7, HEK293, etc.).
(§1) Membrane preparation. Membranes were prepared from tissues or cultured cells. The cells were washed twice with cold PBS and then scraped off with cold buffer containing Tris (5 mM, pH 7.4), EDTA (5 mM), PMSF (0.1 mM), leupeptin (0.02 mM), and pepstatin (0.02 mM). The cells were incubated on ice for 30 minutes, followed by sonication for 30 to 40 seconds. For membrane preparations from tissues, the tissues were sliced into small pieces and subjected to sonication at interval of 10 seconds 4 times. The resulting homogenates from tissues or cultured cells were centrifuged for 10 minutes at 750 to 1000×g, and then the supernatants were centrifuged at 50,000×g for 30 minutes. The resulting pellets were resuspended in the same buffer as described above.
Binding assays. […] The membranes (100 μg of proteins for transiently transfected cells, 20 μg for GKS02 cell membranes, and 10 μg for GKS07 cell membranes) were incubated in 10 mM HEPES (N-[2-hydroxyethyl]piperazine-N′-[2-ethanesulfonic acid]) (pH 7.4) for 40 to 50 minutes at room temperature, and then filtered onto pre-wetted GF/C membranes and quickly washed five times with 3 mL of ice cold 50 mM Tris buffer (pH 7.4). The filters were dried and counted in a liquid scintillation counter. […] The specific binding was obtained by subtracting nonspecific binding from the total binding.

Assay [2] has as its target T2, human α2δ2 (hα2δ2) calcium channel subunit (Homo sapiens, UniProt Q9NY47).
T2 construct: covered the whole open reading frame of hα2δ2 cDNA; expressed in transfected cells
Description: [3H]gabapentin radioligand binding to membranes from HEK293 stable cell line GKS07. The following applies: for affinity in competition with [3H]gabapentin binding, in words: hα2δ2. As for the experimental part:
Cell culture and transfection. COS-7 and HEK293 cells were cultured in DMEM and RPMI 1640 media, respectively. The media were supplemented with 50 units/mL penicillin, 50 μg/mL streptomycin, and 10% heat-inactivated fetal bovine serum (FBS), in a humidified incubator with 95% air and 5% CO2 at 37° C. For transient transfection into COS-7 cells, 20 μg of plasmid DNA (vector or the same vector with α2δ insert) was incubated with 30 μL of lipofectamine. The mixture was overlaid onto the cells in 1.5 mL serum-free medium and incubated for 5 hours. Then FBS was added to the dishes to bring the final concentration to 10%. The medium was changed next morning. Forty-eight hours after the transfection, the cells were harvested for membrane preparation. For stable transfection of porcine α2δ1 and human α2δ2 into HEK 293 cells, the same procedure was applied as that for a transient transfection except for that 800 μg/mL G418 (gentacin) was added to the cells 48 hours after the transfection. […] The cell line has ATCC No. PTA-1823. In addition, hosts for expression of α2δ2 protein binding assays can also include eukaryotic expression systems such as yeast, insect cells, and mammalian cells (CHO, COS-7, HEK293, etc.).
as §1
Binding assays. […] The membranes (100 μg of proteins for transiently transfected cells, 20 μg for GKS02 cell membranes, and 10 μg for GKS07 cell membranes) were incubated in 10 mM HEPES (N-[2-hydroxyethyl]piperazine-N′-[2-ethanesulfonic acid]) (pH 7.4) for 40 to 50 minutes at room temperature, and then filtered onto pre-wetted GF/C membranes and quickly washed five times with 3 mL of ice cold 50 mM Tris buffer (pH 7.4). The filters were dried and counted in a liquid scintillation counter. For determining nonspecific binding, the binding assays were performed in the presence of 10 μM pregabalin (Gee N. S., Brown J. P., Dissanayake V. U., Offord J.; Thurlow R., Woodruff G. N., J. Biol. Chem., 1996;271:5768–5776). The specific binding was obtained by subtracting nonspecific binding from the total binding. Clone #7 was identified as the highest α2δ2 subunit expressing clone. Binding assays can also be performed using recombinant and/or purified α2δ2 protein from human and other mammalian species, for screening α2δ2 subtype-selective inhibitors.

T1 sequence (A0A287BIN3 25-1109): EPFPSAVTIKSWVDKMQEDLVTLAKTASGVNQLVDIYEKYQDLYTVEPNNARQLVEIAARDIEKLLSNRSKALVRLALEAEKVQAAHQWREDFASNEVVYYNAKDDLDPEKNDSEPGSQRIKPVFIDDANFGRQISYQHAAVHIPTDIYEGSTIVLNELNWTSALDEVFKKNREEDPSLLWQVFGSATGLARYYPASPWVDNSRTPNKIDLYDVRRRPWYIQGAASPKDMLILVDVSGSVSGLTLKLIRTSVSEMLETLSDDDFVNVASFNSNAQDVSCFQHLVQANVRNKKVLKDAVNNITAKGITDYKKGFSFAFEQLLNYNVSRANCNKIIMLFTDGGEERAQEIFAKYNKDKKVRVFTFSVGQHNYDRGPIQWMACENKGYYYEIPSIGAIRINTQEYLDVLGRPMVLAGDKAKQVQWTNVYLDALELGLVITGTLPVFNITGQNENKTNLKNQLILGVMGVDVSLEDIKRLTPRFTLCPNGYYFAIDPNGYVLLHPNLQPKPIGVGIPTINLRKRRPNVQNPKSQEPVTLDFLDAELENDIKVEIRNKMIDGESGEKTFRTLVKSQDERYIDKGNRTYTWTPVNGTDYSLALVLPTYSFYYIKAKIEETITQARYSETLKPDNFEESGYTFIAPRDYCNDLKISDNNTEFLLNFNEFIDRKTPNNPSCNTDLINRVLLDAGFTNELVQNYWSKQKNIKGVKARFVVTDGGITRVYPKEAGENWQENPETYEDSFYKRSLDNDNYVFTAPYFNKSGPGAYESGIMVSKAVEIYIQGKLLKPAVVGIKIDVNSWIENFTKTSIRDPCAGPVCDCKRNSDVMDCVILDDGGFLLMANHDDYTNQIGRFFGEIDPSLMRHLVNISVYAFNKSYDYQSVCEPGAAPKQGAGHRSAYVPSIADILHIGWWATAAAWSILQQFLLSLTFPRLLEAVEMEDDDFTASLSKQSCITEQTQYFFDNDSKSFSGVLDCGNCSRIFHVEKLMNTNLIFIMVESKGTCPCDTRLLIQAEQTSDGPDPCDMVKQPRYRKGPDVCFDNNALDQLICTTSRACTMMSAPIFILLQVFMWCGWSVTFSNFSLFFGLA
T2 sequence (Q9NY47 19-1145 isoform Q9NY47-3 limits assumed): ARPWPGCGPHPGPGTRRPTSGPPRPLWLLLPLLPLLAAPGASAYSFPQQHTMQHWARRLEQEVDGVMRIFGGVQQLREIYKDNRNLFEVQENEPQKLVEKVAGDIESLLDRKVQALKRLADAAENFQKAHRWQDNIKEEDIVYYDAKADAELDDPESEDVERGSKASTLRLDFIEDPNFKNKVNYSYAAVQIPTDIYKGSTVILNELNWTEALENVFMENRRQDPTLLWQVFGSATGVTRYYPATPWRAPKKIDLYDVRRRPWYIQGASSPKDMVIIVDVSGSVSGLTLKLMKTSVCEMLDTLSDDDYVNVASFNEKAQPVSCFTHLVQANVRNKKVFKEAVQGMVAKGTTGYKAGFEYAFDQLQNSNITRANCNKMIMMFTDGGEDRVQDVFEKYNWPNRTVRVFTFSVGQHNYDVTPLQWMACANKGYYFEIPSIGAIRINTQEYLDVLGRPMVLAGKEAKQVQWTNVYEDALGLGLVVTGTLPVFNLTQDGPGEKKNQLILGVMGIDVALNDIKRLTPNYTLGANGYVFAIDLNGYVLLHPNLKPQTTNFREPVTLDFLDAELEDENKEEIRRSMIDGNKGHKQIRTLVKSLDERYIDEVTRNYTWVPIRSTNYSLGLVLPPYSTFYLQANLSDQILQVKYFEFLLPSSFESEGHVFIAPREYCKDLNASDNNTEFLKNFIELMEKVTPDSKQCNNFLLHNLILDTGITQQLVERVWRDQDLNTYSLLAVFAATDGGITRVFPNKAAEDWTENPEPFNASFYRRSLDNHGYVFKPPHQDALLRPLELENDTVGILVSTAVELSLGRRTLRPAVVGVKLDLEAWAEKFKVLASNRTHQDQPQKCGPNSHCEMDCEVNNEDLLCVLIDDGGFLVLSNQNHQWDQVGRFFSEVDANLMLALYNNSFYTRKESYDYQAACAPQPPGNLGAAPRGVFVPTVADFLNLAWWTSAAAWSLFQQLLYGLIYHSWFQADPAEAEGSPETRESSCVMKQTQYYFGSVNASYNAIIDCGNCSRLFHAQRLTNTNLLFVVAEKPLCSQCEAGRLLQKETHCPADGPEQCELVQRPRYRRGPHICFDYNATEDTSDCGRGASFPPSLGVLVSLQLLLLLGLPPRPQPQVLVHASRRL
T2 sequence (Q9NY47 1002-1150 partner limits assumed): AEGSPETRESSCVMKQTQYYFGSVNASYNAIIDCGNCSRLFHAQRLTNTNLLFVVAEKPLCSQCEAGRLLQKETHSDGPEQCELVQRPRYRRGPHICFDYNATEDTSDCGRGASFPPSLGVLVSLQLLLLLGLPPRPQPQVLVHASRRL

`NC1(C(=O)O)CC2CCC1C2` (stereo not shown) [BCH]: the “affinity in competition with [3H]gabapentin binding, in words” value (shortened to “affinity in competition”) in assay [1] and in assay [2] was “weak” each time. For the same compound, the IC50 in assay [1] (read-out: IC50 Values for Inhibition of [3H]Gabapentin Binding, GKS02 (pα2δ1), membranes from HEK293 cell line GKS02, 20 nM [3H]gabapentin) turned out to be 1030 nM; in assay [2] (read-out: IC50 Values for Inhibition of [3H]Gabapentin Binding, GKS07 (hα2δ2), membranes from HEK293 cell line GKS07, 20 nM [3H]gabapentin) it was 775 nM.

Consider `CC(C)C[C@@H](N)C(=O)O` [D-leucine], for which the IC50 in assay [1] was determined as 199000 nM; in assay [2], 152000 nM.

As to `NCC1(CC(=O)O)CCCCC1` [Gabapentin, 1-(aminomethyl)cyclohexane acetic acid], the concentration for half-maximal inhibition (IC50) in assay [2] was found to be 282 nM.

In the case of `CC(C)C[C@H](N)C(=O)O` [L-leucine], the IC50 in assay [1] was 118 nM; in assay [2], 205 nM. Moreover, the “affinity in competition” value in assay [1] and in assay [2] was “markedly more potent than its D-enantiomer” in each case.

For `N[C@@H](Cc1ccccc1)C(=O)O` [L-phenylalanine], the IC50 turned out to be 825 nM in assay [1] and 2960 nM in assay [2]. Also, in assay [2], the “affinity in competition” value is “weak”.

On to `CC(C)C[C@H](CN)CC(=O)O` [Pregabalin, (S+)-3-isobutyl GABA], for which the IC50 in assay [1] is 149 nM; in assay [2], 96 nM.

One may read the IC50 as the midpoint of a concentration-inhibition curve.
